The text below walks through data of patent publication US5106851A, “Benzofused-N-containing heterocycle derivatives” (Istituto de Angeli S.p.A., priority 1989, dated 1992).

Read-outs that look alike come from different tables or passages of the source.

One assay addresses T1, Muscarinic M2 (Rattus norvegicus, UniProt P10980).
T1 construct: displacement of ^3 H-NMS from total heart homogenate; from tissue; host or cells: total heart homogenate
T1 sequence (P10980 1-466): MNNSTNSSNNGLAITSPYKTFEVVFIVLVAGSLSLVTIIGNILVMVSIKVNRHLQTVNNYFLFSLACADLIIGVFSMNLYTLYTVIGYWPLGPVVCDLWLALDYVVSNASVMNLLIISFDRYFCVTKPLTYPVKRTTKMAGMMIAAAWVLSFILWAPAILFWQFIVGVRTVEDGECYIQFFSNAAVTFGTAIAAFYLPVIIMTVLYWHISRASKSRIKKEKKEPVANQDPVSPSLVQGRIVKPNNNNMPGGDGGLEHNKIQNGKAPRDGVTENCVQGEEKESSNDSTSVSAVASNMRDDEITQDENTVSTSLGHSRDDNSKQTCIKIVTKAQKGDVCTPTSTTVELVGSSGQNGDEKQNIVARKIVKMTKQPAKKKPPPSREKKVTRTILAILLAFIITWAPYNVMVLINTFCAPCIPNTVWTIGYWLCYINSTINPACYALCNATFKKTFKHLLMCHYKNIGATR
Description: Displacement of 3H-NMS from total heart homogenate (receptor binding studies in vitro). The protocol: (§1) Muscarinic M1 activity was determined by studying the displacement of ^3 H-pirenzepine from cerebral cortex homogenate according to the procedure reported below: The cerebral cortex donors were male CD-COOBBS rats, 220-250 g body weight. The homogenization process was carried out in a Potter-Evelhjem apparatus in the presence of Na^+ /Mg^++ HEPES buffer; pH 7.4 (100 mM NaCl, 10 mM MgCl2, 20 mM HEPES); by filtering the suspension through two layers of cheesecloth. Binding curves for the under study compounds were derived indirectly from competition experiments against 0.5 nM ^3 H-pirenzepine labelling the muscarinic receptors of the cerebral cortex. 1 ml of the homogenate was incubated for 45 min at 30° C. in the presence of a maker ligand and different concentration of the cold ligand, conditions under which equilibrium was reached as determined by appropriate association experiments. The incubation was terminated by centrifugation (12,000 rpm for 3 min) at room temperature using an Eppendorf microcentrifuge. The resultant pellet was washed twice with 1.5 ml saline to remove the free radioactivity and it was allowed to dry. The tips of the tubes containing the pellet were cut off and 200 μl of tissue solubilizer (Lumasolve, Lumac) were added and left to stand overnight. Radioactivity was then counted after addition of 4 ml of liquid scintillation mixture (Dimilume/Toluene 1+10 v:v, Packard).
(§2) Assays were carried out in triplicate or quadruplicate and the non-specificbinding was defined as the radioactivity bound or entrapped in the pellet when the incubation medium contained 1 μM atropine sulphate. Non-specific binding averaged less than 30%. KD values (dissociation constants) were obtained by non-linear regression analysis on the basis of one binding site model with TOPFIT-pharmacokinetic programme package (G. Heinzel "Pharmacokinetics During Drug Development: Data Analysis and Evaluation Techniques" Eds. G. Bolzer and J. M. Van Rossum; p. 207, G. Fisher, New York, 1982) after correction for the radioligand occupancy shift according to the equation: KD =IC50 /1+*C/*KD, where *C and *KD represent the concentration and the dissociation constants of the radioligand, used respectively. Muscarinic M2 activity was examined by studing the displacement of ^3 H-NMS from total heart homogenate according to a procedure identical to the one already described hereinbefore for the muscarinic M1 activity.
A general note: Loss of bound radioactivity is the signal in a displacement assay; it reports binding, not function.

The next assay addresses T2, guinea pig ileum (Cavia porcellus, UniProt H0W1Z3).
T2 construct: A 2 cm section of terminal ileum was prepared; from tissue; host or cells: isolated guinea pig terminal ileum
Description: Functional studies in vitro, isolated guinea pig ileum contracted with bethanechol. The protocol: (§3) Antimuscarinic activity and selectivity were examined in in vitro by receptor binding studies in two tissues endowed with M1 and M2 muscarinic receptors (cerebral cortex, heart), in functional studies in isolated guinea pig ileum and guinea pig paced left atria and in in vivo functional tests on bronchi and heart of the anaesthetized guinea pig.
Responses were recorded isotonically. Kb values were calculated according to Arunlakshana and Shild (British Journal of Pharmacology 14, 48-54, 1959).

The target of another assay is T3, Muscarinic M1 (Rattus norvegicus, UniProt P08482).
T3 construct: displacement of ^3 H-pirenzepine from cerebral cortex homogenate; from tissue; host or cells: rat cerebral cortex homogenate
T3 sequence (P08482 1-460): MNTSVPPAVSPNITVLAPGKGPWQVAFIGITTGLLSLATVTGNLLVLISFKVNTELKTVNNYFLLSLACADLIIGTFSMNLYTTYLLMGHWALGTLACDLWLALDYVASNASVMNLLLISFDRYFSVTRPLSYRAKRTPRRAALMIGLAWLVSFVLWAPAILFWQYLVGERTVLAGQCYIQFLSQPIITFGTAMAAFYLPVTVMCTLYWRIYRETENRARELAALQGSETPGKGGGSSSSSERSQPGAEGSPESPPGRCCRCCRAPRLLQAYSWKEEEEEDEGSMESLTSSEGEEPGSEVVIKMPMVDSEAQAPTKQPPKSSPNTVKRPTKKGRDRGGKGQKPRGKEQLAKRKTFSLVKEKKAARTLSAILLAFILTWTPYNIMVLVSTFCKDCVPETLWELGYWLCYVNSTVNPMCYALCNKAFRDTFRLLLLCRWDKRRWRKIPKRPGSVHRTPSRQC
Description: Displacement of 3H-pirenzepine from cerebral cortex homogenate (receptor binding studies in vitro). The protocol:
as §1, §2

A further assay deals with T4, guinea pig left atria (Cavia porcellus, UniProt H0VRN8).
T4 construct: guinea pig paced left atria; from tissue; host or cells: isolated guinea pig left atria
T4 sequence (H0VRN8 1-466): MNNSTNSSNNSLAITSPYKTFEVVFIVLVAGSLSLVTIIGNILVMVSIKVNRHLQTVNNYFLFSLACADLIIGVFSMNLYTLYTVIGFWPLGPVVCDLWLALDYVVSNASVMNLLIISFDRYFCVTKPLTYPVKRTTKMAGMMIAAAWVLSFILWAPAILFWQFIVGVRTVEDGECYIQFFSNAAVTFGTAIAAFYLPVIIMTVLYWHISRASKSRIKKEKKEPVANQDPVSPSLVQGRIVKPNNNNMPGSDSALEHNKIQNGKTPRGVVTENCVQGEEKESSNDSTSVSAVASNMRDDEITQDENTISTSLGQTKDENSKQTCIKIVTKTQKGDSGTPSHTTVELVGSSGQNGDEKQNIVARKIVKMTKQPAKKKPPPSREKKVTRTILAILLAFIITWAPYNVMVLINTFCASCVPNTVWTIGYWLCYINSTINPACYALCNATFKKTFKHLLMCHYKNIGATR
Description: Functional studies in vitro, guinea pig paced left atria, bethanechol negative inotropic effect.
Source text: as §3
The tissues were mounted in the Ewen's solution (millimolar: NaCl, 131.6; KCl, 5.6; CaCl2, 2.16; NaHCO3, 24.9; NaH2 PO4, 1.03; glucose, 11; and sucrose, 13) at 32° C. and stimulated through platinum electrodes by squarewave pulses (2 msec, 3 Hz, 100% above threshold voltage, delivered by a Grass S 48 stimulator). Inotropic activity was recorded isometrically (Statham transducer, Battaglia Rangoni ESO 300 recorder). Cumulative concentrations of bethanecol (1-30 μM) were used to induce a negative inotropic effect. Kb values were estimated as above described.

Assay [1] has as its system muscarinic responses in guinea pig longitudinal ileum and guinea pig paced left atria. Particulars: prototype compound, in words; cited from earlier work.
The test system of assay [2] is Muscarinic receptors in the bronchi. Description: In vivo inhibition of acetylcholine-induced bronchoconstriction in the anaesthetized guinea pig. Particulars: Cavia porcellus, iv, 5 min; i.v., 5 min before acetylcholine 50 μg/kg; dose in mol/kg; read-out: -log ED50, bronchi (converted). Here is the method:
(§4) Guinea pigs of either sex (550-600 g) were anaesthetized with urethane (1.4 g/kg, i.p.). A jugular vein was cannulated for injection of drugs. Heparin (200 I.U./kg) was injected i.v. A cannula was placed in the trachea and the animals were artificially respirated with oxygenated room air by means of a positive pressure pump (Braun-Melsungen) with a rate of 80 strokes/min. A side arm of the tracheal cannula was connected to a water manometer of 10 cm height. The respiratory volume was adjusted so that the maximal intratracheal pressure during inspiration just attained to a pressure of 10 cm water.
Excepts for some modifications, the effects of the drugs on bronchial tone was measured according to the method described by Konzett and Rossler (1940). The bronchoconstriction-evoked volume of respiratory gas mixture (overflow) passing through the water manometer was measured by means of a FLEISCH tube pneumotachometer (Model 0000) connected to a SP 2040 D differential pressure transducer (HSE). Registration was performed on a IFD recording device. […]
The drugs to be tested were injected via the jugular vein and 5 min later bronchial resistence (%) and the decrease in cardiac frequence (beats/min) to acetylcholine (50 μg/kg i.v. and i.a.) was measured. […]

In assay [3] the test system is Muscarinic receptors in the heart. Description: In vivo inhibition of acetylcholine-induced bradycardia in the anaesthetized guinea pig. Particulars: Cavia porcellus, iv, 5 min; i.v., 5 min before acetylcholine 50 μg/kg; dose in mol/kg; read-out: -log ED50, heart (converted). The protocol:
as §4
A cannula was placed in the left common carotid artery and arterial blood pressure was measured via a Bell and Howell 4-327 I pressure transducer connected to an IFD recording device. Cardiac frequency was measured by a ratemeter, triggered by the arterial pulsewave.
The drugs to be tested were injected via the jugular vein and 5 min later bronchial resistence (%) and the decrease in cardiac frequence (beats/min) to acetylcholine (50 μg/kg i.v. and i.a.) was measured. Dose response curves were constructed by plotting the percent inhibition of bronchoconstriction and bradycardia against the logarithm of the dose (mol/kg) of the drugs to be tested.

Assay [4] deals with receptors with low affinity to Pirenzepine (M2 type). The conditions noted are these: mainly in effector organs; cited from earlier work.
The mark [5] stands for this setting: total heart homogenate, 3H-NMS, read-out: KD, M2 (heart).

T2 sequence (H0W1Z3 1-590): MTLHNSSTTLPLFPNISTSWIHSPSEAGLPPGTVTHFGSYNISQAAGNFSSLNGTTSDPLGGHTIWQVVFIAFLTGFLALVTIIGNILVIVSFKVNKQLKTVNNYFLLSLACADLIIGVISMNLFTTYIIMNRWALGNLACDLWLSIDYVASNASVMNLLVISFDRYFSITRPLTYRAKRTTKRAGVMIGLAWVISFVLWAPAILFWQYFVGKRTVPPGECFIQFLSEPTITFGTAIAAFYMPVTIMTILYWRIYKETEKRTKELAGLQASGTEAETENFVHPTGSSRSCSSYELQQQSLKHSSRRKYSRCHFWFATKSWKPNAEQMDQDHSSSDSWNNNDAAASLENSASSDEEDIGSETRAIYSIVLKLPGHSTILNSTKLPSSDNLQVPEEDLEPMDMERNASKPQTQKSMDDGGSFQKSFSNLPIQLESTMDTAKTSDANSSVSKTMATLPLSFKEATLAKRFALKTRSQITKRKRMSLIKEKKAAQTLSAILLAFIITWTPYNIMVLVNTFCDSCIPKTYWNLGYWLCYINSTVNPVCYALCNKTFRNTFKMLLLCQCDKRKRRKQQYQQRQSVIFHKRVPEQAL

For the compound `CN1[C@@H]2CC[C@H]1C[C@@H](OC(=O)N1Cc3ccc(Cl)cc3NC1=O)C2` [Compound 25, 7-chloro-1,4-dihydro-2(H)-2-oxo-3-quinazoline carboxylic acid-(endo-8-methyl-8-azabicyclo[3.2.1]oct-3-yl), ester], the equilibrium dissociation constant (Kd) (commonly the free concentration of one partner at which half of the binding sites on the other are occupied at equilibrium, for simple one-to-one binding) on Muscarinic M2 (setting [5]) came to 1470 nM; at Muscarinic M1, 7 nM. The figures for the Kb on guinea pig ileum and at guinea pig left atria were 16 nM and 2200 nM, respectively.

Consider `CCN(CC)CC1CCCCN1CC(=O)N1c2ccccc2C(=O)Nc2cccnc21` (centres unmarked) [AF-DX-116, 11-2-{[2-(diethylamino)methyl-1-piperidinyl]acetyl}-5,11-dihydro-6H-pyrido (2,3-b)(1,4)benzodiazepin-6-one], for which the “tissue selectivity among muscarinic antagonists” value in assay [1] was “cardioselective”.

As to `CN1[C@@H]2CC[C@H]1C[C@@H](OC(=O)N1Cc3ccccc3NC1=O)C2` [Compound 16, 1,4-dihydro-2(H)-2-oxo-3-quinazoline carboxylic acid-(endo-8-methyl-8-azabicyclo[3.2.1]oct-3-yl), ester], the equilibrium dissociation constant (Kd) at Muscarinic M2 is 133 nM; on Muscarinic M1 (cerebral cortex homogenate, 0.5 nM 3H-pirenzepine, 45 min at 30° C., pH 7.4, read-out: KD, M1 (cortex)), 1 nM. Moreover, the Kb at guinea pig ileum came out at 1.5 nM; at guinea pig left atria it was 122 nM. Moreover, the ED50 (in general, the dose that gives a 50% effect, or the effect in half of the subjects) in assay [2] is 0.00794 µmol/kg; in assay [3], 1 µmol/kg.

On to `CN1[C@@H]2CC[C@H]1C[C@@H](NC(=O)N1Cc3ccccc3NC1=O)C2` [Compound 23, N-(endo-8-methyl-8-azabicyclo[3.2.1]oct-3-yl)-1,4-dihydro-2(H)-2-oxo-3-quinazoline carboxamide], for which the Kd at Muscarinic M2 came out at 60 nM; on Muscarinic M1, 1 nM. The Kb at guinea pig ileum (functional studies, guinea pig ileum, bethanechol 0.3-10 μM, read-out: Kb, ileum) stood at 0.6 nM; on guinea pig left atria (functional studies, guinea pig paced left atria, bethanechol 1-30 μM, 32° C., read-out: Kb, heart), 22 nM.

Take `C[N+]1(C)CCC(OC(=O)C(c2ccccc2)c2ccccc2)CC1` [Compound 4-DAMP, 4-diphenylacetoxy-N-methylpiperidine methobromide]: the “tissue selectivity among muscarinic antagonists” value in assay [1] was “smooth muscle selective”.

Regarding `CC(C[N+](C)(C)C)OC(N)=O` (centres unmarked) [bethanechol, reference compound], the EC50 (in general, the concentration that produces a half-maximal response) on guinea pig ileum (guinea pig terminal ileum, Tyrode solution, cumulative conc. 0.3-10 μM, read-out: EC50 of bethanechol (contraction)) worked out at 1500 nM.

With `CN1CCN(CC(=O)N2c3ccccc3C(=O)Nc3cccnc32)CC1` [Pirenzepine], the “affinity at M2 type receptors” value in assay [4] is on record as “low affinity”.

As for `CN1C2CCC1CC(OC(=O)N1C(=O)Nc3ccccc3C1O)C2` (stereo not drawn) [Compound 49, 1,4-dihydro-4-hydroxy-2(H)-2-oxo-3-quinazolinecarboxylic acid-(endo-8-methyl-8-azabicyclo[3.2.1]oct-3-yl), ester], the Kd is 250 nM at Muscarinic M2 (setting [5]) and 2 nM on Muscarinic M1. The Kb came out at 1 nM at guinea pig ileum and 75 nM at guinea pig left atria.

`CN1[C@@H]2CC[C@H]1C[C@@H](OC(=O)N1Cc3cc(F)ccc3NC1=O)C2` [Compound 26, 1,4-dihydro-6-fluoro-2(H)-2-oxo-3-quinazoline carboxylic acid-(endo-8-methyl-8-azabicyclo[3.2.1]oct-3-yl), ester]: the equilibrium dissociation constant (Kd) at Muscarinic M2 (setting [5]) stood at 400 nM; at Muscarinic M1, 3 nM. Besides, the Kb at guinea pig ileum is 4.5 nM; on guinea pig left atria, 250 nM.
